According to ChEMBL document CHEMBL5678818, “Discovery of potent SOS1 inhibitors that block RAS activation via disruption of the RAS-SOS1 interaction” (Proc Natl Acad Sci U S A, 2019):

Experiments:
[1] = target: T1, Non-receptor tyrosine-protein kinase TNK1 (Homo sapiens) (UniProt Q13470); assay: Inhibition of TNK1 (unknown origin) assessed as residual activity at 1000 nM by KINOMEscan analysis relative to control
T1 sequence (whole entry): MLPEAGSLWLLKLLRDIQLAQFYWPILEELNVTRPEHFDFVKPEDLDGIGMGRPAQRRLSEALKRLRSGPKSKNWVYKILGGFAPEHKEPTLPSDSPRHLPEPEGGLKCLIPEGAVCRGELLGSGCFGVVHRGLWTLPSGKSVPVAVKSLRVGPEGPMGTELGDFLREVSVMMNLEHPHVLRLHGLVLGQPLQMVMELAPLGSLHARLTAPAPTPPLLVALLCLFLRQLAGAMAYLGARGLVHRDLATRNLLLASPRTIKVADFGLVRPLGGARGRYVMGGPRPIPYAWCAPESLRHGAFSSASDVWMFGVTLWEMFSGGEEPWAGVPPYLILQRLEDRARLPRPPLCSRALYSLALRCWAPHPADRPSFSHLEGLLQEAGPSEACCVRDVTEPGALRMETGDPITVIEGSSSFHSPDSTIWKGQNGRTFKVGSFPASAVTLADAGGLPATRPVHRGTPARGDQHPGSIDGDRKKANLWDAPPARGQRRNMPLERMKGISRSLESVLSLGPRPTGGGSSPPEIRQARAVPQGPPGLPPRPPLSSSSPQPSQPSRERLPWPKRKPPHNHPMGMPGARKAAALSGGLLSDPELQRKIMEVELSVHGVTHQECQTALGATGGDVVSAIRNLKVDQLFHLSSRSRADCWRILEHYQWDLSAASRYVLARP

[2] = target: T2, Hormonally up-regulated neu tumor-associated kinase (Homo sapiens) (UniProt P57058); assay: Inhibition of HUNK (unknown origin) assessed as residual activity at 1000 nM by KINOMEscan analysis relative to control
T2 sequence (whole entry): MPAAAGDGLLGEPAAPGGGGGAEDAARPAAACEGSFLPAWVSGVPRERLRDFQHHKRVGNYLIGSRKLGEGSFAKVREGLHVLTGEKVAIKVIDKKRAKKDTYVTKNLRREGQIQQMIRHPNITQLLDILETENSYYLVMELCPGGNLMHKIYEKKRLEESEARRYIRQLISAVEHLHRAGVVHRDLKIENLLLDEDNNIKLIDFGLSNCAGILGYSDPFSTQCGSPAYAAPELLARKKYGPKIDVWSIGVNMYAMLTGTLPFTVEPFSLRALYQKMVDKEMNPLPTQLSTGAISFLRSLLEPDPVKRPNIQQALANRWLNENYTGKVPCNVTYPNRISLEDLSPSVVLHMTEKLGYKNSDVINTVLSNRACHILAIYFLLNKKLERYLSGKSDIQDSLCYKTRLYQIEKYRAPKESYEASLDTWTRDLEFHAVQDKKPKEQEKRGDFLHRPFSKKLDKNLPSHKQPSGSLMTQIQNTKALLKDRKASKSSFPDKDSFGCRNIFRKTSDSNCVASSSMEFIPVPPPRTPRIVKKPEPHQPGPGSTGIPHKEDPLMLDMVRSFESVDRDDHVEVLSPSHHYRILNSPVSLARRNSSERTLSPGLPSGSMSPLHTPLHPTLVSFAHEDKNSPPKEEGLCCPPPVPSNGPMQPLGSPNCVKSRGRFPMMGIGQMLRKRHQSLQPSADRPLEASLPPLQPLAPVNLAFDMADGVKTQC

[3] = target: Ribosomal protein S6 kinase beta-1 (Homo sapiens) (UniProt P23443); assay: Inhibition of S6K1 (unknown origin) assessed as residual activity at 1000 nM by KINOMEscan analysis relative to control
Ribosomal protein S6 kinase beta-1 (Homo sapiens), sequence (P23443 whole entry, looked up): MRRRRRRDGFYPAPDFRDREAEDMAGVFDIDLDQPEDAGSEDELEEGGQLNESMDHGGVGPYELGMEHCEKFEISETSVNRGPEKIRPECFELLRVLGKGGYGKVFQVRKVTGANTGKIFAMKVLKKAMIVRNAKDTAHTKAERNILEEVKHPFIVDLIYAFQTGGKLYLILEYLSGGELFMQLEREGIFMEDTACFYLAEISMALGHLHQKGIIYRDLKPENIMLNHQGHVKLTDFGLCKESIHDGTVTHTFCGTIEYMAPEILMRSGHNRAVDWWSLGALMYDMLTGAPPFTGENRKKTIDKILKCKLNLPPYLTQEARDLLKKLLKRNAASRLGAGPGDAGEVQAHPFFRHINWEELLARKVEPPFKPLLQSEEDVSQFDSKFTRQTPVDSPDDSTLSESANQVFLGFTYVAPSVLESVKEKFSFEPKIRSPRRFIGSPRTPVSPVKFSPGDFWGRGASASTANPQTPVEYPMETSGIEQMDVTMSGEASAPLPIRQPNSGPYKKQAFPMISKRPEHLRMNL

[4] = target: T3, Serine/threonine-protein kinase ICK (Homo sapiens) (UniProt Q9UPZ9); assay: Inhibition of ICK (unknown origin) assessed as residual activity at 1000 nM by KINOMEscan analysis relative to control
T3 sequence (whole entry): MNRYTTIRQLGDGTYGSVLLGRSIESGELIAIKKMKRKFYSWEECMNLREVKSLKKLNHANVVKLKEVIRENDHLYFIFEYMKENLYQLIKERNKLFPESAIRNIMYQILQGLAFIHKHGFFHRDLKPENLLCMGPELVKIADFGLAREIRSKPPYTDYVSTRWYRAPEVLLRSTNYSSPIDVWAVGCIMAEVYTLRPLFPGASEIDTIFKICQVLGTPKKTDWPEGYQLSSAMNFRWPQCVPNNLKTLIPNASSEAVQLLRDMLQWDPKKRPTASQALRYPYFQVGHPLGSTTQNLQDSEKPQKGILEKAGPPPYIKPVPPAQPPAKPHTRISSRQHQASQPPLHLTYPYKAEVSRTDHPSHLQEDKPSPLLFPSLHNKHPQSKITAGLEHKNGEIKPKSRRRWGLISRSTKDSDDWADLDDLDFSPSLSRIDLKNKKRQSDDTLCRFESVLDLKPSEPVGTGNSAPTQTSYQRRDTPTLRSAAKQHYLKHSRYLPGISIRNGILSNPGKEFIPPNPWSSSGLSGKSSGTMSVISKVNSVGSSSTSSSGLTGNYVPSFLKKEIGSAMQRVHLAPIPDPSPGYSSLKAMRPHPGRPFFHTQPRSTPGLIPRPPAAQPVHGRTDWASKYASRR

[5] = target: STE20-like serine/threonine-protein kinase (Homo sapiens) (UniProt Q9H2G2); assay: Inhibition of SLK (unknown origin) assessed as residual activity at 1000 nM by KINOMEscan analysis relative to control
STE20-like serine/threonine-protein kinase (Homo sapiens), sequence (Q9H2G2 whole entry, looked up): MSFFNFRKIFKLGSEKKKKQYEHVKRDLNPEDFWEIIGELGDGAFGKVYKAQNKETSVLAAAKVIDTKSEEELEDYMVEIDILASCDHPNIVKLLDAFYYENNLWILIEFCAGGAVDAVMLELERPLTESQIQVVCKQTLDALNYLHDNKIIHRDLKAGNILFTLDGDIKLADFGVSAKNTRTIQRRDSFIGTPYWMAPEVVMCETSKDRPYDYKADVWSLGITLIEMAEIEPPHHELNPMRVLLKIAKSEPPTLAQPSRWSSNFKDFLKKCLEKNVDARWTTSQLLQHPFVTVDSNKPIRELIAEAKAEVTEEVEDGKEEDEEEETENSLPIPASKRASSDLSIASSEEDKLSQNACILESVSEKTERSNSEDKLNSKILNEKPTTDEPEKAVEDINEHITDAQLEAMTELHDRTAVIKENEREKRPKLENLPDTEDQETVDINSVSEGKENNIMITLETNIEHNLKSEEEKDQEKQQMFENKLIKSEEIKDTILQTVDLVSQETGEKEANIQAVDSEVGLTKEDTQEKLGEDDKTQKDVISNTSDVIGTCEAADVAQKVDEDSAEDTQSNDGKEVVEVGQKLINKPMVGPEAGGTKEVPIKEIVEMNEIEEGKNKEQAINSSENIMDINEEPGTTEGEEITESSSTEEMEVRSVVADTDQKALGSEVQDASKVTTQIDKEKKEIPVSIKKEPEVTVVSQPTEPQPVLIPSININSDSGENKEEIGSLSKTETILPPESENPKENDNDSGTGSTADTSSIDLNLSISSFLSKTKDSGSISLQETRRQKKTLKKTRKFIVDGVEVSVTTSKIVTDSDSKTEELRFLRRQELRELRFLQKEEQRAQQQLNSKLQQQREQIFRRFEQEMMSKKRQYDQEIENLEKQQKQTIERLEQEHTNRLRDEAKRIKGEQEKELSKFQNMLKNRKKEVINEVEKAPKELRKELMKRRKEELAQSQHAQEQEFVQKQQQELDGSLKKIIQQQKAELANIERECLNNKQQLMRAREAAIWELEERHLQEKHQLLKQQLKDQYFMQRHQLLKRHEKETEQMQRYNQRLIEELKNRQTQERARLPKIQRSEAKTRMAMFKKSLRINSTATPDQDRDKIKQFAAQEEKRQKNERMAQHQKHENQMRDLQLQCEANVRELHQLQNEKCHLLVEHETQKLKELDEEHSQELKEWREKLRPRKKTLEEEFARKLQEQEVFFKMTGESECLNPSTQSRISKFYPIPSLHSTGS

[6] = target: Microtubule-associated serine/threonine-protein kinase 1 (Homo sapiens) (UniProt Q9Y2H9); assay: Inhibition of MAST1 (unknown origin) assessed as residual activity at 1000 nM by KINOMEscan analysis relative to control
[7] = target: Dual specificity protein kinase CLK4 (Homo sapiens) (UniProt Q9HAZ1); assay: Inhibition of CLK4 (unknown origin) assessed as residual activity at 1000 nM by KINOMEscan analysis relative to control
Dual specificity protein kinase CLK4 (Homo sapiens), sequence (Q9HAZ1 whole entry, looked up): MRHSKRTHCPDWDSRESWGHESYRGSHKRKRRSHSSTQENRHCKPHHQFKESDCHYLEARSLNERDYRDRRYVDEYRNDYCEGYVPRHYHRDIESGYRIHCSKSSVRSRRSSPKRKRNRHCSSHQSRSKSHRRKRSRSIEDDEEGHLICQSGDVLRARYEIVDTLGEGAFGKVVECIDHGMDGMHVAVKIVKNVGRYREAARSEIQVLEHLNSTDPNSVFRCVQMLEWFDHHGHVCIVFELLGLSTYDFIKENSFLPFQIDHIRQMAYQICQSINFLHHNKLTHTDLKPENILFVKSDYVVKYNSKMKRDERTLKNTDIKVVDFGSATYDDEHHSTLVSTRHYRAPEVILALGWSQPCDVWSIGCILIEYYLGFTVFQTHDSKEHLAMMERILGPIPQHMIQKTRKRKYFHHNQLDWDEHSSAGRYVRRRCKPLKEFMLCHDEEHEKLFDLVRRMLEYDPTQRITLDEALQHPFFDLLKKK

[8] = target: Platelet-derived growth factor receptor alpha (Homo sapiens) (UniProt P16234); assay: Inhibition of PDGFRA (unknown origin) assessed as residual activity at 1000 nM by KINOMEscan analysis relative to control
Platelet-derived growth factor receptor alpha (Homo sapiens), sequence (P16234 whole entry): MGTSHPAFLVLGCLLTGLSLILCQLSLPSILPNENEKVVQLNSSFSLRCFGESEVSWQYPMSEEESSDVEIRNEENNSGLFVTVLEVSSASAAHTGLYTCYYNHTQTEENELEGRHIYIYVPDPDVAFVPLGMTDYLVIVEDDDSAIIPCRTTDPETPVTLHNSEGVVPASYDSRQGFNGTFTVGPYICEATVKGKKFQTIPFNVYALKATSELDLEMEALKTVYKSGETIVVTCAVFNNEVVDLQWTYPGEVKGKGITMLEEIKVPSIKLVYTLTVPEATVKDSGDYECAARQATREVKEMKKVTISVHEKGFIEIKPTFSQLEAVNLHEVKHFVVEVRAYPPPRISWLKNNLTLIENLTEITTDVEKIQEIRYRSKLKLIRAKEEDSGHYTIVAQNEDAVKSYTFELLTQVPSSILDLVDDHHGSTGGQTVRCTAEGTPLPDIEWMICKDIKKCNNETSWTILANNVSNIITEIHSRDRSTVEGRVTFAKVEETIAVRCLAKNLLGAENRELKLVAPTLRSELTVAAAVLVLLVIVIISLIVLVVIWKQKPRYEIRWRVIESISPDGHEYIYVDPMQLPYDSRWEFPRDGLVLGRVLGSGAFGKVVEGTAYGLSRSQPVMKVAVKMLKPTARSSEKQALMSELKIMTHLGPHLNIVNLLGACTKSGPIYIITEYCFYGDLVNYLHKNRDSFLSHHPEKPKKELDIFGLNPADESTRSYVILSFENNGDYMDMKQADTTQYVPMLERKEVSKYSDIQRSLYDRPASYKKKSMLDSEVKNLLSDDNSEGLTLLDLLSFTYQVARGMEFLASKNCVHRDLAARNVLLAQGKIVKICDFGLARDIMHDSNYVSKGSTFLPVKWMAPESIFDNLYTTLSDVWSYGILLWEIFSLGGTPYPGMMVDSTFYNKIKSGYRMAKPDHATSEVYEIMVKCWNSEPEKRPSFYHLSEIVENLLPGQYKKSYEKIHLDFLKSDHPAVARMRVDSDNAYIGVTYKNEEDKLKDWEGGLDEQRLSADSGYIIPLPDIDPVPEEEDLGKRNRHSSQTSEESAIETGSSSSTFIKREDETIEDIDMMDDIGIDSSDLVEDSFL

[9] = target: Serine/threonine-protein kinase WNK3 (Homo sapiens) (UniProt Q9BYP7); assay: Inhibition of WNK3 (unknown origin) assessed as residual activity at 1000 nM by KINOMEscan analysis relative to control
Serine/threonine-protein kinase WNK3 (Homo sapiens), sequence (Q9BYP7 whole entry): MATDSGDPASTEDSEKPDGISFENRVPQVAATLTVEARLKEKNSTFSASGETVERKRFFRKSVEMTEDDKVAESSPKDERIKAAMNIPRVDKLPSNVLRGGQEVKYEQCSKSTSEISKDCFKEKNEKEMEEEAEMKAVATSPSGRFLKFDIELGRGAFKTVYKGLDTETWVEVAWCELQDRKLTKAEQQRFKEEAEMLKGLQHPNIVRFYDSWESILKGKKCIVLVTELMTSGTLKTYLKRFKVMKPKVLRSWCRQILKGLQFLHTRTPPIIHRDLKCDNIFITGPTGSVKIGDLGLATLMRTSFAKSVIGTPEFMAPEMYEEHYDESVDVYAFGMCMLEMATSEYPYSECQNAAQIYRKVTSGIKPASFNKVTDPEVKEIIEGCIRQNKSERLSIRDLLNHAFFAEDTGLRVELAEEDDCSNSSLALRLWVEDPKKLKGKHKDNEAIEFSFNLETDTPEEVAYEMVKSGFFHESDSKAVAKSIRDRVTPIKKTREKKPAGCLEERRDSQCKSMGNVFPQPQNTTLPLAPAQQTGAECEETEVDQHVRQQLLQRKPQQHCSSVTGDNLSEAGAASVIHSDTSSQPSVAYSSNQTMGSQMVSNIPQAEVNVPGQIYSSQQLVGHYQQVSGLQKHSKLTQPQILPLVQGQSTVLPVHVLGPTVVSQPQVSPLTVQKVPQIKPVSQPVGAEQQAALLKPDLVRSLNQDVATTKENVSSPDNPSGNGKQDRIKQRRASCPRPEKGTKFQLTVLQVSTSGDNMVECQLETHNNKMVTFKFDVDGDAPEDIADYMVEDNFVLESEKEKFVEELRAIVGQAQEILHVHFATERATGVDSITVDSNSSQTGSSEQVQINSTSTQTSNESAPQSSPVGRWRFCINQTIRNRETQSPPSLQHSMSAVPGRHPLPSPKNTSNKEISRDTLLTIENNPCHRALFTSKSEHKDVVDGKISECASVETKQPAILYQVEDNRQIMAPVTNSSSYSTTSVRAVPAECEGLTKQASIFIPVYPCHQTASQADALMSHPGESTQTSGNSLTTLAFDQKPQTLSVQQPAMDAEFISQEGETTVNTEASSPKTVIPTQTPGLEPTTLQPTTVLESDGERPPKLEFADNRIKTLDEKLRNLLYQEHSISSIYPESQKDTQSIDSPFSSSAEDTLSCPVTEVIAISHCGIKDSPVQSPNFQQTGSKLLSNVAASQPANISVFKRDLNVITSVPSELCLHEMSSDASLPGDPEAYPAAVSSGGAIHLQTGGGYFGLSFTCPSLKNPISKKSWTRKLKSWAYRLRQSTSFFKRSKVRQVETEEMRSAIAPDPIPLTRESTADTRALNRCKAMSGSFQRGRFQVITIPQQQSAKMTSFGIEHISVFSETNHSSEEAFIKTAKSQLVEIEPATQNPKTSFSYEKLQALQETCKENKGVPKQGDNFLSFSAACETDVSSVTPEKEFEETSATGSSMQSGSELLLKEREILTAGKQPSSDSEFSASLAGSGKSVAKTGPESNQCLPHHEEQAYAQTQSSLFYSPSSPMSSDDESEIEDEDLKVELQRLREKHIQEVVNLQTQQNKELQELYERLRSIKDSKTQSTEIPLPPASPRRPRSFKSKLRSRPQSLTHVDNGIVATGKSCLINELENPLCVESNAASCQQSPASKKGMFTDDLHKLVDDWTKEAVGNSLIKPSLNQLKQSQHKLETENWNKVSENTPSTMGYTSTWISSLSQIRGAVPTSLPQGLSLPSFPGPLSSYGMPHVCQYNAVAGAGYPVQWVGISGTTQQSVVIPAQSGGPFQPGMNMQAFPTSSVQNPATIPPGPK

Compound	Activity [1] [%]	Activity [2] [%]	Activity [3] [%]	Activity [4] [%]	Activity [5] [%]	Activity [6] [%]	Activity [7] [%]	Activity [8] [%]	Activity [9] [%]
COc1cc2nc(C)nc(N[C@H](C)c3cccc(-c4cn[nH]c4)c3)c2cc1OC	100	94	78	78	61	64	93	100	93
COc1cc2ncnc(N[C@H](C)c3cccc4ccccc34)c2cc1OC	100	76	91	94	84	91	100	100	99
